# Patent publication US7875645B2, “Method for the treatment of CNS disorders with substituted 2-imidazoles or imidazole derivatives” (Hoffman-La Roche Inc., priority 2006, dated 2011)
# Where a name gives a salt, the structure may show the parent alone.
# Biological target: T1, TAAR1 (Mus musculus, UniProt Q923Y8)
# T1 construct: expressed in transfected cells; host or cells: HEK293 (ATCC # CRL-1573), stably transfected with pIRESneo2 expression plasmid; membranes prepared
# Experiment: Radioligand binding assay on membranes of HEK293 cells stably expressing TAAR1
# Details: mouse TAAR1; radioligand [3H]-rac-2-(1,2,3,4-tetrahydro-1-naphthyl)-2-imidazoline at 60 nM; 4° C., 30 min
# Description: For the construction of expression plasmids the coding sequences of human, rat and mouse TAAR 1 were amplified from genomic DNA essentially as described by Lindemann et al.. The Expand High Fidelity PCR System (Roche Diagnostics) was used with 1.5 mM Mg^2+ and purified PCR products were cloned into pCR2.1-TOPO cloning vector (Invitrogen) following the instructions of the manufacturer. PCR products were subcloned into the pIRESneo2 vector (BD Clontech, Palo Alto, Calif.), and expression vectors were sequence verified before introduction in cell lines.
# For the generation of stably transfected cell lines HEK293 cells were transfected with the pIRESneo2 expression plasmids containing the TAAR coding sequences (described above) with Lipofectamine 2000 (Invitrogen) according to the instructions of the manufacturer, and 24 hrs post transfection the culture medium was supplemented with 1 mg/ml G418 (Sigma, Buchs, Switzerland). After a culture period of about 10 d clones were isolated, expanded and tested for responsiveness to trace amines (all compounds purchased from Sigma) with the cAMP Biotrak Enzyme immunoassay (EIA) System (Amersham) following the non-acetylation EIA procedure provided by the manufacturer.
# Cells at confluence were rinsed with ice-cold phosphate buffered saline without Ca^2+ and Mg^2+ containing 10 mM EDTA and pelleted by centrifugation at 1000 rpm for 5 min at 4° C. The pellet was then washed twice with ice-cold phosphate buffered saline and cell pellet was frozen immediately by immersion in liquid nitrogen and stored until use at −80° C. Cell pellet was then suspended in 20 ml HEPES-NaOH (20 mM), pH 7.4 containing 10 mM EDTA, and homogenized with a Polytron (PT 3000, Kinematica) at 10,000 rpm for 10 s. The homogenate was centrifuged at 48,000×g for 30 min at 4° C. and the pellet resuspended in 20 ml HEPES-NaOH (20 mM), pH 7.4 containing 0.1 mM EDTA (buffer A), and homogenized with a Polytron at 10,000 rpm for 10 s. The homogenate was then centrifuged at 48,000×g for 30 min at 4° C. and the pellet resuspended in 20 ml buffer A, and homogenized with a Polytron at 10,000 rpm for 10 s. Protein concentration was determined by the method of Pierce (Rockford, Ill.). The homogenate was then centrifuged at 48,000×g for 10 min at 4° C., resuspended in HEPES-NaOH (20 mM), pH 7.0 including MgCl2 (10 mM) and […] homogenized with a Polytron at 10,000 rpm for 10 s.
# Binding assay was performed at 4° C. in a final volume of 1 ml, and with an incubation time of 30 min. […] Non-specific binding was defined as the amount of [^3H]-rac-2-(1,2,3,4-tetrahydro-1-naphthyl)-2-imidazoline bound in the presence of the appropriate unlabelled ligand (10 μM). Competing ligands were tested in a wide range of concentrations (10 pM-30 μM). […] Each experiment was performed in duplicate. Al incubations were terminated by rapid filtration through UniFilter-96 plates (Packard Instrument Company) and glass filter GF/C, pre-soaked for at least 2 h in polyethylenimine 0.3%, and using a Filtermate 96 Cell Harvester (Packard Instrument Company). The tubes and filters were then washed 3 times with 1 ml aliquots of cold buffer B. Filters were not dried and soaked in Ultima gold (45 μl/well, Packard Instrument Company) and bound radioactivity was counted by a TopCount Microplate Scintillation Counter (Packard Instrument Company).
# T1 sequence (Q923Y8 whole entry): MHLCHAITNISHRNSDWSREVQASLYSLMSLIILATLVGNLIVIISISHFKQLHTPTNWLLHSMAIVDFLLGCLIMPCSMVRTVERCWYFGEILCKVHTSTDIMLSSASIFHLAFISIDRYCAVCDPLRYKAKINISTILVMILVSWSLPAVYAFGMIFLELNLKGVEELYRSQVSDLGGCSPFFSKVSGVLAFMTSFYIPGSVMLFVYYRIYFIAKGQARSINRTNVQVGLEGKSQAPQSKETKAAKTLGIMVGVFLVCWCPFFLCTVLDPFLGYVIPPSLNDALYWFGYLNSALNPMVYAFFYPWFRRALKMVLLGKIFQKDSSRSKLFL
row,Compound,Ki [µM]
1,"[3H]c1ccc(CC)c(Cc2ncc[nH]2)c1CC [Example 112, 2-(2,6-Diethyl-3-tritio-benzyl)-1H-imidazole]",0.025
2,"CCOc1cc(CC)c(Cc2ncc[nH]2)c(CC)c1 [Example 215, 2-(4-Ethoxy-2,6-diethyl-benzyl)-1H-imidazole]",0.029
3,"c1ccc(C2CC2)c(CC2=NCCN2)c1 [Example 56, 2-(2-Cyclopropyl-benzyl)-4,5-dihydro-1H-imidazole]",0.025
4,"Cc1c(C)c(C)c(CC2=NCCN2)c(C)c1C [Example 115, 2-Pentamethylphenylmethyl-4,5-dihydro-1H-imidazole]",0.007
5,"Oc1ccc2ccccc2c1CC1=NCCN1 [Example 172, 1-(4,5-Dihydro-1H-imidazol-2-ylmethyl)-naphthalen-2-ol hydrochloride]",0.05
6,"CCc1c(Cl)ccc(F)c1CC1=NCCN1 [Example 198, 2-(3-Chloro-2-ethyl-6-fluoro-benzyl)-4,5-dihydro-1H-imidazole]",0.036
7,"COc1cc(Br)c(CC2=NCCN2)cc1OC [Example 34, 2-(2-Bromo-4,5-dimethoxy-benzyl)-4,5-dihydro-1H-imidazole hydrochloride]",0.031
8,"CCc1ccc(Br)c(CC)c1CC1=NCCN1 [Example 32, 2-(3-Bromo-2,6-diethyl-benzyl)-4,5-dihydro-1H-imidazole]",0.005
9,"Cc1cc(C)c(Cc2ncc[nH]2)c(C)c1 [Example 137, 2-(2,4,6-Trimethyl-benzyl)-1H-imidazole]",0.038
10,"COc1c(CC2=NCCN2)ccc2occc12 [Example 169, 2-(4-Methoxy-benzofuran-5-ylmethyl)-4,5-dihydro-1H-imidazole hydrochloride]",0.045
11,"CC(C1=NCCN1)c1ccc(Cc2ccccc2)cc1 (racemic) [Example 158, rac-2-[1-(4-Benzyl-phenyl)-ethyl]-4,5-dihydro-1H-imidazole hydrochloride]",0.021
12,"CCc1cccc(C)c1CC1=NCCN1 [Example 11, 2-(2-Ethyl-6-methyl-benzyl)-4,5-dihydro-1H-imidazole]",0.007
13,"CCc1ccc(OC)c(CC)c1CC1=NCCN1 [Example 206, 2-(2,6-Diethyl-3-methoxy-benzyl)-4,5-dihydro-1H-imidazole]",0.038
14,"Cc1cccc(C(C)C2=NCCN2)c1C (racemic) [Example 18, rac-2-[1-(2,3-Dimethyl-phenyl)-ethyl]-4,5-dihydro-1H-imidazole hydrochloride]",0.027
15,"Cc1cc(C)c(C)c(CC2=NCCN2)c1C [Example 116, 2-(2,3,5,6-Tetramethyl-benzyl)-4,5-dihydro-1H-imidazole]",0.008
16,"Cc1cc(C(C)(C)C)c(O)c(C)c1CC1=NCCN1 [Example 117, 6-tert-Butyl-3-(4,5-dihydro-1H-imidazol-2-ylmethyl)-2,4-dimethyl-phenol, reference compound]",0.008
17,"CCc1cc(Oc2ccccc2)cc(CC)c1Cc1ncc[nH]1 [Example 219, 2-(2,6-Diethyl-4-phenoxy-benzyl)-1H-imidazole]",0.012
18,"Cc1cc(C)c(C)c(Cc2ncc[nH]2)c1C [Example 71, 2-(2,3,5,6-Tetramethyl-benzyl)-1H-imidazole]",0.01
19,"c1cc2ccc(CC3=NCCN3)cc2o1 [Example 170, 2-Benzofuran-6-ylmethyl-4,5-dihydro-1H-imidazole hydrochloride]",0.026
20,"COc1ccc2ccccc2c1CC1=NCCN1 [Example 149, 2-(2-Methoxy-naphthalen-1-ylmethyl)-4,5-dihydro-1H-imidazole]",0.012
21,"Cc1cc(C(C)(C)C)cc(C)c1CC1=NCCN1 [Example 114, 2-(4-tert-Butyl-2,6-dimethyl-benzyl)-4,5-dihydro-1H-imidazole, reference compound]",0.006
22,"Cc1cc(C)c(CC2=NCCN2)c(C)c1 [Example 118, 2-(2,4,6-Trimethyl-benzyl)-4,5-dihydro-1H-imidazole, reference compound]",0.017

row,Compound,Ki [µM]
1,"Cc1sc(C)c(CC2=NCCN2)c1C [Example 109, 2-(2,4,5-Trimethyl-thiophen-3-ylmethyl)-4,5-dihydro-1H-imidazole]",0.004
2,"CCc1cccc(C(C)C)c1CC1=NCCN1 [Example 12, 2-(2-Ethyl-6-isopropyl-benzyl)-4,5-dihydro-1H-imidazole]",0.03
3,"Cc1ccc2ccccc2c1CC1=NCCN1 [Example 154, 2-(2-Methyl-naphthalen-1-ylmethyl)-4,5-dihydro-1H-imidazole]",0.01
4,"c1ccc2cc(CC3=NCCN3)ccc2c1 [Example 141, 2-Naphthalen-2-ylmethyl-4,5-dihydro-1H-imidazole]",0.029
5,"c1cc(CC2=NCCN2)c2occc2c1 [Example 107, 2-Benzofuran-7-ylmethyl-4,5-dihydro-1H-imidazole]",0.022
6,"CCc1ccc(F)c(CC)c1Cc1ncc[nH]1 [Example 202, 2-(2,6-Diethyl-3-fluoro-benzyl)-1H-imidazole]",0.034
7,"Nc1c(Cl)cc(CC2=NCCN2)cc1Cl [Example 125, 2,6-Dichloro-4-(4,5-dihydro-1H-imidazol-2-ylmethyl)-phenylamine, reference compound]",0.048
8,"Cc1ccc2ccoc2c1CC1=NCCN1 [Example 106, 2-(6-Methyl-benzofuran-7-ylmethyl)-4,5-dihydro-1H-imidazole]",0.017
9,"CCc1cc(OC)cc(CC)c1Cc1ncc[nH]1 [Example 210, 2-(2,6-Diethyl-4-methoxy-benzyl)-1H-imidazole]",0.048
10,"Clc1cccc(I)c1CC1=NCCN1 [Example 187, 2-(2-Chloro-6-iodo-benzyl)-4,5-dihydro-1H-imidazole]",0.016
11,"COc1cccc(CC2=NCCN2)c1OC [Example 122, 2-(2,3-Dimethoxy-benzyl)-4,5-dihydro-1H-imidazole]",0.025
12,"4-Tritio-2-naphthalen-1-ylmethyl-4,5-dihydro-1H-imidazole [Example 113]",0.007
13,"FC(F)(F)c1cccc(CC2=NCCN2)c1Cl [Example 59, 2-(2-Chloro-3-trifluoromethyl-benzyl)-4,5-dihydro-1H-imidazole]",0.041
14,"CCc1ccc(OCc2ccccc2)c(CC)c1Cc1ncc[nH]1 [Example 218, 2-(3-Benzyloxy-2,6-diethyl-benzyl)-1H-imidazole]",0.047
15,"c1ccc2c(CC3=NCCN3)csc2c1 [Example 143, 2-Benzo[b]thiophen-3-ylmethyl-4,5-dihydro-1H-imidazole]",0.004
16,"Cc1cccc(Br)c1CC1=NCCN1 [Example 57, 2-(2-Bromo-6-methyl-benzyl)-4,5-dihydro-1H-imidazole]",0.029
17,"COc1cc(C)c(CC2=NCCN2)cc1C [Example 33, 2-(4-Methoxy-2,5-dimethyl-benzyl)-4,5-dihydro-1H-imidazole hydrochloride]",0.014
18,"COc1cc(C)c(CC2=NCCN2)c(C)c1 [Example 123, 2-(4-Methoxy-2,6-dimethyl-benzyl)-4,5-dihydro-1H-imidazole]",0.028
19,"COc1cc(C)c(Cc2ncc[nH]2)c(C)c1 [Example 73, 2-(4-Methoxy-2,6-dimethyl-benzyl)-1H-imidazole]",0.049
20,"CCc1ccccc1CC1=NCCN1 [Example 54, 2-(2-Ethyl-benzyl)-4,5-dihydro-1H-imidazole]",0.016
21,"Cc1c(C)c(C)c(Cc2ncc[nH]2)c(C)c1C [Example 72, 2-Pentamethylphenylmethyl-1H-imidazole]",0.017

# Same assay, conditions: radioligand used in the TAAR1 binding assay; species not given; read-out: calculated Kd value of the radioligand
row,Compound,Kd [µM]
1,"c1ccc2c(c1)CCCC2C1=NCCN1 (racemic) [[^3H]-rac-2-(1,2,3,4-tetrahydro-1-naphthyl)-2-imidazoline, reference compound]",0.06
